Assay results as given in patent US8633183B2 (priority 2010, dated 2014).

target: PI3Kalpha (Homo sapiens (Human), UniProt P42336); details: read-out: IC50 PI3K
Sequence (P42336 whole entry, looked up): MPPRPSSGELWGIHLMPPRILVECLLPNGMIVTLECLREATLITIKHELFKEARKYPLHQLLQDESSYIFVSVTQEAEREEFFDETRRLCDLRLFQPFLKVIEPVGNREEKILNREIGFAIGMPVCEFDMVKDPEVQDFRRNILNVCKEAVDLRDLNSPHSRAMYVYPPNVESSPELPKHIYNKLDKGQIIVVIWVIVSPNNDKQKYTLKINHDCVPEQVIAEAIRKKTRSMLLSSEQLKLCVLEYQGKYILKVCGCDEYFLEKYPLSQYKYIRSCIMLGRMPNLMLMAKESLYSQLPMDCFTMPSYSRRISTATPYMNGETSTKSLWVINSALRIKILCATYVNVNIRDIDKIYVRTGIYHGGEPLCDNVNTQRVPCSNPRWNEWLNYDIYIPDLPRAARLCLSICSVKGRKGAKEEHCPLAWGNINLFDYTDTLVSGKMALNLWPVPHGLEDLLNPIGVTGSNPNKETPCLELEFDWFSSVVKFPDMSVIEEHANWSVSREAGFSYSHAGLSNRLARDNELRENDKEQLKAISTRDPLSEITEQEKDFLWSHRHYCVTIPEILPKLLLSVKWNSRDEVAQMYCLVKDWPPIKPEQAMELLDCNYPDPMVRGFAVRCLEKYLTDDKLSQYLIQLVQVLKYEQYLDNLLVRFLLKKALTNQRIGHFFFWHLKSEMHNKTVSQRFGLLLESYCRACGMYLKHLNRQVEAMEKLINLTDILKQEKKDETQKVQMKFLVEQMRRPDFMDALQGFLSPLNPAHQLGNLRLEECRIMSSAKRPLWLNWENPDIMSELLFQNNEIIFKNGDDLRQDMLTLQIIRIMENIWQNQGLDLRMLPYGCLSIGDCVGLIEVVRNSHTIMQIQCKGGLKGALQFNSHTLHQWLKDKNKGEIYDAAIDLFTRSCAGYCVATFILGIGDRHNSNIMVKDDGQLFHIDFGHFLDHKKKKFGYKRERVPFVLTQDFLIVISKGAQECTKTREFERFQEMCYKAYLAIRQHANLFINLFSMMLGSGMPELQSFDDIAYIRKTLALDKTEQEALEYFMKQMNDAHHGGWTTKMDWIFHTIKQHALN

Row | SMILES | IC50 [nM]
1 | CCc1ncnc(-c2ccc(C(=O)N3CCC4(CC3)OCCCO4)c(C)c2)c1C#Cc1ccc(N)nc1 [Example E-117] | 73.5
2 | CCc1ncnc(-c2ccc(C(=O)N3CCC(C4CCN(C)CC4)CC3)c(C)c2)c1C#Cc1ccc(N)nc1 [Example E-119] | 281
3 | CCc1ncnc(-c2ccc(C(=O)NC3CCCN(C)C3)c(C)c2)c1C#Cc1ccc(N)nc1 (stereo not drawn) [Example E-120] | 349
4 | CCc1ncnc(-c2ccc(C(=O)N3CC[S+]([O-])CC3)c(C)c2)c1C#Cc1ccc(N)nc1 [Example E-121] | 63.9
5 | CCc1ncnc(-c2ccc(C(=O)N3CCNCC3)c(C)c2)c1C#Cc1ccc(N)nc1 [Example E-127] | 158
6 | CCc1ncnc(-c2ccc(C(=O)N(C)O)c(C)c2)c1C#Cc1ccc(N)nc1 [Example E-128] | 37.2
7 | CCc1ncnc(-c2ccc(C(=O)N3CCCN(C)CC3)c(C)c2)c1C#Cc1ccc(N)nc1 [Example E-129] | 237
8 | CCc1ncnc(-c2ccc(C(=O)N3CCN(c4ccccn4)CC3)c(C)c2)c1C#Cc1ccc(N)nc1 [Example E-130] | 69.1
9 | CCc1ncnc(-c2ccc(C(=O)N3CCN(c4ccncc4)CC3)c(C)c2)c1C#Cc1ccc(N)nc1 [Example E-131] | 158
10 | CCc1ncnc(-c2ccc(C(=O)N3CCC(O)CC3)c(C)c2)c1C#Cc1ccc(N)nc1 [Example E-132] | 45.5
11 | CCc1ncnc(-c2ccc(C(=O)N3CCCOCC3)c(C)c2)c1C#Cc1ccc(N)nc1 [Example E-133] | 77.8
12 | CCc1ncnc(-c2ccc(C(=O)NCC3(C)COC3)c(C)c2)c1C#Cc1ccc(N)nc1 [Example E-134] | 44.9
13 | CCc1ncnc(-c2ccc(C(=O)N3CCN(c4ccccc4)CC3)c(C)c2)c1C#Cc1ccc(N)nc1 [Example E-135] | 149
14 | CCc1ncnc(-c2ccc(C(=O)N3CCN4CCC[C@@H]4C3)c(Cl)c2)c1C#Cc1ccc(N)nc1 [Example E-139] | 160
15 | CCc1ncnc(-c2ccc(C(=O)N3CCN4CCC[C@@H]4C3)c(F)c2)c1C#Cc1ccc(N)nc1 [Example E-140] | 198
16 | CCc1ncnc(-c2ccc(C(=O)N3CCN4CCC[C@H]4C3)c(Cl)c2)c1C#Cc1ccc(N)nc1 [Example E-141] | 260
17 | CCc1ncnc(-c2ccc(C(=O)N3CCN4CCC[C@H]4C3)c(F)c2)c1C#Cc1ccc(N)nc1 [Example E-142] | 107
18 | CCc1ncnc(-c2ccc(C(=O)N3CCN4CCCC[C@H]4C3)c(Cl)c2)c1C#Cc1ccc(N)nc1 [Example E-143] | 127
19 | CCc1ncnc(-c2ccc(C(=O)N3CCN4CCCC[C@H]4C3)c(F)c2)c1C#Cc1ccc(N)nc1 [Example E-144] | 169
20 | CCc1ncnc(-c2ccc(C(=O)N3CCN4CCCC[C@@H]4C3)c(F)c2)c1C#Cc1ccc(N)nc1 [Example E-145] | 358
21 | CCc1ncnc(-c2cc(F)c(C(=O)N3CCN(CCCS(C)(=O)=O)CC3)c(F)c2)c1C#Cc1ccc(N)nc1 [Example E-146] | 45.8
22 | CCc1ncnc(-c2cc(F)c(C(=O)N3CCn4ccnc4C3)c(F)c2)c1C#Cc1ccc(N)nc1 [Example E-147] | 55.7
23 | CCc1ncnc(-c2cc(F)c(C(=O)N3CCn4cnnc4C3)c(F)c2)c1C#Cc1ccc(N)nc1 [Example E-148] | 70.6
24 | CCc1ncnc(-c2cc(F)c(C(=O)N3CCn4c(C)cnc4C3)c(F)c2)c1C#Cc1ccc(N)nc1 [Example E-149] | 85.8

Row | SMILES | IC50 [nM]
25 | CCc1ncnc(-c2cc(F)c(C(=O)N3CCC4(CC3)COC4)c(F)c2)c1C#Cc1ccc(N)nc1 [Example E-150] | 120
26 | CCc1ncnc(-c2cc(F)c(C(=O)N3CCn4cnnc4C3)c(Cl)c2)c1C#Cc1ccc(N)nc1 [Example E-156] | 18.3
27 | CCc1ncnc(-c2cc(F)c(C(=O)N3CCn4c(C)cnc4C3)c(Cl)c2)c1C#Cc1ccc(N)nc1 [Example E-157] | 37.5
28 | CCc1ncnc(-c2cc(F)c(C(=O)N3CCC4(CC3)COC4)c(Cl)c2)c1C#Cc1ccc(N)nc1 [Example E-158] | 122
29 | CCc1ncnc(-c2cc(F)c(C(=O)N3CCN(CCNS(C)(=O)=O)CC3)c(Cl)c2)c1C#Cc1ccc(N)nc1 [Example E-159] | 25.8
30 | CCc1ncnc(-c2cc(F)c(C(=O)N3CCN(C4CCC4)CC3)c(Cl)c2)c1C#Cc1ccc(N)nc1 [Example E-160] | 115
31 | CCc1ncnc(-c2cc(F)c(C(=O)N3CCC4(CC3)CNC4)c(F)c2)c1C#Cc1ccc(N)nc1 [Example E-161] | 925
32 | CCc1ncnc(-c2cc(F)c(C(=O)N3CCC4(CC3)CNC4)c(Cl)c2)c1C#Cc1ccc(N)nc1 [Example E-162] | 540
33 | CCc1ncnc(-c2ccc(C(=O)N3CCn4c(COC)nnc4C3)c(F)c2)c1C#Cc1ccc(N)nc1 [Example E-163] | 50.8
34 | CCc1ncnc(-c2ccc(C(=O)N3CCC4(CC3)COC4)c(F)c2)c1C#Cc1ccc(N)nc1 [Example E-164] | 154
35 | C#CCN1CCN(C(=O)c2ccc(-c3ncnc(CC)c3C#Cc3ccc(N)nc3)cc2F)CC1 [Example E-165] | 178
36 | CCc1ncnc(-c2ccc(C(=O)N3CCC(F)(F)CC3)c(F)c2)c1C#Cc1ccc(N)nc1 [Example E-166] | 154
37 | CCc1ncnc(-c2ccc(C(=O)NCCN3CCNCC3)c(F)c2)c1C#Cc1ccc(N)nc1 [Example E-167] | 157
38 | CCc1ncnc(-c2ccc(C(=O)NCC3CCNCC3)c(F)c2)c1C#Cc1ccc(N)nc1 [Example E-168] | 373
39 | CCc1ncnc(-c2ccc(C(=O)N(C)C3CCOCC3)c(F)c2)c1C#Cc1ccc(N)nc1 [Example E-169] | 70
40 | CCc1ncnc(-c2cc(F)c(C(=O)N3CCn4c(COC)nnc4C3)c(F)c2)c1C#Cc1ccc(N)nc1 [Example E-170] | 96.5
41 | CCc1ncnc(-c2cc(F)c(C(=O)NCCN3CCNCC3)c(F)c2)c1C#Cc1ccc(N)nc1 [Example E-174] | 165
42 | CCc1ncnc(-c2cc(F)c(C(=O)NCC3CCNCC3)c(F)c2)c1C#Cc1ccc(N)nc1 [Example E-175] | 163
43 | CCc1ncnc(-c2cc(F)c(C(=O)N(C)C3CCN(C)CC3)c(F)c2)c1C#Cc1ccc(N)nc1 [Example E-176] | 491
44 | CCc1ncnc(-c2ccc(C(=O)N3CCC(C(C)(C)O)CC3)c(F)c2)c1C#Cc1ccc(NC)nc1 [Example E-177] | 337
45 | CCc1ncnc(-c2ccc(C(=O)N3CCC(N4CCOCC4)CC3)c(F)c2)c1C#Cc1ccc(NC)nc1 [Example E-178] | 335
46 | CCc1ncnc(-c2ccc(C(=O)N3CCN(C4CCOCC4)CC3)c(F)c2)c1C#Cc1ccc(NC)nc1 [Example E-179] | 276
47 | CCc1ncnc(-c2ccc(C(=O)N3CC[C@@H](N(C)C)C3)c(F)c2)c1C#Cc1ccc(NC)nc1 [Example E-180] | 357
48 | CCc1ncnc(-c2ccc(C(=O)N3CC[C@H](N(C)C)C3)c(F)c2)c1C#Cc1ccc(NC)nc1 [Example E-181] | 275

Row | SMILES | IC50 [nM]
49 | CCc1ncnc(-c2ccc(C(=O)N3CCN(C)CC3)c(F)c2)c1C#Cc1ccc(NC)nc1 [Example E-182] | 247
50 | CCc1ncnc(-c2ccc(C(=O)N3CCC(N4CCN(C)CC4)CC3)c(F)c2)c1C#Cc1ccc(NC)nc1 [Example E-183] | 308
51 | CCc1ncnc(-c2ccc(C(=O)N3CCC(C(C)(C)O)CC3)c(Cl)c2)c1C#Cc1ccc(NC)nc1 [Example E-184] | 399
52 | CCc1ncnc(-c2ccc(C(=O)N3CCC(N4CCOCC4)CC3)c(Cl)c2)c1C#Cc1ccc(NC)nc1 [Example E-185] | 202
53 | CCc1ncnc(-c2ccc(C(=O)N3CCN(C4CCOCC4)CC3)c(Cl)c2)c1C#Cc1ccc(NC)nc1 [Example E-186] | 325
54 | CCc1ncnc(-c2ccc(C(=O)N3CCN(CC(F)F)CC3)c(Cl)c2)c1C#Cc1ccc(NC)nc1 [Example E-187] | 162
55 | CCc1ncnc(-c2ccc(C(=O)N3CC[C@@H](N(C)C)C3)c(Cl)c2)c1C#Cc1ccc(NC)nc1 [Example E-188] | 356
56 | CCc1ncnc(-c2ccc(C(=O)N3CCN(CC)CC3)c(Cl)c2)c1C#Cc1ccc(NC)nc1 [Example E-189] | 186
57 | CCc1ncnc(-c2ccc(C(=O)N3CC[C@H](N(C)C)C3)c(Cl)c2)c1C#Cc1ccc(NC)nc1 [Example E-190] | 175
58 | CCc1ncnc(-c2ccc(C(=O)N3CCN(C)CC3)c(Cl)c2)c1C#Cc1ccc(NC)nc1 [Example E-191] | 142
59 | CCc1ncnc(-c2ccc(C(=O)N3CCC(N4CCN(C)CC4)CC3)c(Cl)c2)c1C#Cc1ccc(NC)nc1 [Example E-192] | 334
60 | CCc1ncnc(-c2cc(Cl)c(C(=O)N3CCN4CCC[C@H]4C3)c(Cl)c2)c1C#Cc1ccc(N)nc1 [Example E-194] | 129
61 | CCc1ncnc(-c2cc(Cl)c(C(=O)N3CCN(C)C(=O)C3)c(Cl)c2)c1C#Cc1ccc(N)nc1 [Example E-195] | 20.3
62 | CCc1ncnc(-c2cc(Cl)c(C(=O)N3CC[C@@H](N(C)C)C3)c(Cl)c2)c1C#Cc1ccc(N)nc1 [Example E-196] | 235
63 | CCc1ncnc(-c2cc(Cl)c(C(=O)N3CCN(C)CC3)c(Cl)c2)c1C#Cc1ccc(N)nc1 [Example E-197] | 123
64 | CCc1ncnc(-c2cc(Cl)c(C(=O)N3CCN(CC)CC3)c(Cl)c2)c1C#Cc1ccc(N)nc1 [Example E-198] | 90.9
65 | CCc1ncnc(-c2cc(Cl)c(C(=O)N3CCN(CC(C)(C)O)CC3)c(Cl)c2)c1C#Cc1ccc(N)nc1 [Example E-199] | 74.6
66 | CCc1ncnc(-c2cc(Cl)c(C(=O)N3CCC(C(C)O)CC3)c(Cl)c2)c1C#Cc1ccc(N)nc1 (stereo not drawn) [Example E-200] | 58.8
67 | CCc1ncnc(-c2cc(Cl)c(C(=O)N3CCC(C(C)(C)O)CC3)c(Cl)c2)c1C#Cc1ccc(N)nc1 [Example E-201] | 98.1
68 | CCc1ncnc(-c2cc(Cl)c(C(=O)N3CCN(CC(F)F)CC3)c(Cl)c2)c1C#Cc1ccc(N)nc1 [Example E-202] | 85.8
69 | CCc1ncnc(-c2cc(Cl)c(C(=O)N3CCC(C)(O)CC3)c(Cl)c2)c1C#Cc1ccc(N)nc1 [Example E-203] | 95.2
70 | CCc1ncnc(-c2cc(Cl)c(C(=O)N3CCC(CO)CC3)c(Cl)c2)c1C#Cc1ccc(N)nc1 [Example E-205] | 48.9
71 | CCc1ncnc(-c2cc(Cl)c(C(=O)N3CCN(CCC#N)CC3)c(Cl)c2)c1C#Cc1ccc(N)nc1 [Example E-206] | 71.8
72 | CCc1ncnc(-c2cc(F)c(C(=O)N3CCN4CCC[C@H]4C3)c(F)c2)c1C#Cc1ccc(NC)nc1 [Example E-207] | 581
